The test system of the series is Artemia. Description: Toxicity in brine shrimp. In kind it is organism-based. Particulars: in vivo; call rule not given here.

Experimental findings from ChEMBL document CHEMBL1158677, “New Diterpene Lactones from the Sponge Spongia matamata” (J Nat Prod, 1998) are described below.

Turning to `C[C@]12CC(=O)O[C@@](C)(CO)[C@@H]1CC[C@@]1(C)c3cocc3CC[C@H]21`, the Activity entry was “Not Active”.
